According to paper PMC6178282, “Comparative cell biological study of in vitro antitumor and antimetastatic activity on melanoma cells of GnRH-III-containing conjugates modified with short-chain fatty acids” (Beilstein Journal of Organic Chemistry, 2018):

Tested on: A2058 melanoma cells
Experiment: Apoptosis assay, Vitabright-48 thiol staining, NucleoCounter NC-250 image cytometer
Type: cell-based, human
Details: 10^−5 M, 24 h, NucleoCounter NC-250, average of two parallels ± S.D., control 8.7 ± 0.72
Method: The pro-apoptotic effects of conjugates and Dau at 10^−5 M concentration was studied after 24 h incubation by flow cytometry using FITC-annexin V (Sony Biotechnology, Weybridge, UK) and a novel image cytometer (NucleoCounter® NC-250^TM, ChemoMetec A/S, Lillerød, Denmark) using Vitabright-48™ (ChemoMetec A/S, Lillerød, Denmark), a cell permeable dye that reacts with thiol groups to form a fluorescent product. […]
normalizing the viability of conjugate-treated cells with that of the control cells, and these indices of groups pretreated with inhibitors or DMSO were statistically compared.
The apoptotic effect of conjugates and Dau was determined by a FACSCalibur flow cytometer (Becton Dickinson, San Jose, CA, USA) after staining with annexin V-FITC (Sony Biotechnology, Weybridge, UK) and NucleoCounter® NC-250™ cell analyzer (ChemoMetec A/S, Lillerød, Denmark) using Vitabright-48™, a cell-permeable fluorescent dye (ChemoMetec A/S, Lillerød, Denmark). […]
The cells were dissociated by a TrypLE reagent (Thermo Fisher Scientific, Waltham, MA, USA) composed of recombinant enzyme protecting the cell’s surface proteins and it was followed by a centrifugation and a washing step with PBS. […] Before labeling with annexin V-FITC, the cells were measured by a flow cytometer for controlling the autofluorescence of cells in case of each treatment group. […]

SMILES: COc1cccc2c1C(=O)c1c(O)c3c(c(O)c1C2=O)C[C@@](O)(C(C)=O)C[C@@H]3O[C@H]1C[C@H](N)[C@H](O)[C@H](C)O1 [daunorubicin]
- the ratio of apoptotic cells, Vitabright-48™: 30.9 ± 0.68 %
